A word on the IC50: it is the midpoint of a concentration-inhibition curve.

Experimental findings from patent US20260078114A1, “COMPOUND USED AS INHIBITOR OF CDK4 KINASE AND USE THEREOF” (TYK MEDICINES, INC., priority 2022, published 2026) are described below.

Experiment [1] deals with CDK4/CycD1 (Homo sapiens, UniProt P11802). The experiment is described as follows: Kinase activity test (mobility shift assay, EZ Reader), CDK4.
Method: The tested compounds were subjected to CDK4 and CDK6 kinase IC50 values test.
• (1) Preparing a 1.3× enzyme solution containing enzyme, substrate and cofactor as shown below. • (2) Adding 15 μL of 1.3× enzyme solution to each well and incubating for 30 min at room temperature. • (3) Starting the reaction by adding 5 μL of 4×ATP solution, with each test well containing the listed components and a final volume of 20 μL. • (4) Incubating for 150 minutes and then stopping the reaction by adding 75 μL of buffer (containing 0.5 M EDTA). • (5) Reading the data from each test well by EZ for analysis.
Percentage inhibition was calculated using the read conversion ratio (CR) according to the formula below:
The wells treated with DMSO were used as positive control (positive control) and the wells without enzyme were used as negative control (negative control).
Experiment [2] addresses CDK6/CyclinD3 (Homo sapiens, UniProt Q00534). The experiment is described as follows: Kinase activity test (mobility shift assay, EZ Reader), CDK6. The settings on record: CDK6/CyclinD3 5.00 nM, ATP 350 μM, FL-Peptide34. In kind it is biochemical.
Experiment [3] concerns Human breast cancer cell MCF-7. Kind of experiment: Cellular antiproliferative assay (MTT, 5 days), MCF-7. In kind it is cell-based. The settings on record: Homo sapiens, MCF7, 120 h, MCF-7 cells, 5 days incubation. The procedure:
(§1) Human breast cancer cell MCF-7, ovarian cancer cell A2780, human mantle cell lymphoma cell JEKO-1. DMEM medium (Bio-Channel), DMSO (dimethyl sulfoxide), MTT (thiazolyl blue), 0.25% EDTA-Tripsin (tryptic digest), 1×PBS (phosphate buffer, PH7.2), 96-well plate (Corning), fetal bovine serum (FBS), 10,000 U/mL penicillin-G/streptomycin, high-speed cryo-centrifuge (EPPENDORF 5810R), enzyme-linked immunoassay (Tecan Spark).
(§2) • A) Tumor cells were cultured in DMEM (high sugar with 10% FBS and 100 U/mL penicillin-G/streptomycin) at 37° C., 5% CO2 and saturated humidity until 80-90% dense. • B) Removed the culture medium from 10 cm Petri dishes; • C) Rinsed the cells once with 10 ml 1×PBS; • D) Added 4 ml 0.25% EDTA-Tripsin into 37° C., 5% CO2 incubator for trypsin digestion for 5 minutes, transferred to 15 ml centrifuge tube, centrifuged at 200 g for 5 minutes, discarded the supernatant to get cell precipitate; • E) Resuspended with 4 ml DMEM medium, counted and adjust to 50,000 cells/ml. • F) Added cell suspension to 96-well plate with 100 μL per well volume and incubated overnight at 37° C., 5% CO2 incubator.
(§3) • A) Preparation of gradient dilution solution of the tested compound: the test compound was configured into 1 mM reservoir solution.
(§4) • A) Taking the cell culture plate and adding 10 μL of 5 mg/ml MTT in the biosafety cabinet; • B) Putting the cell culture plate back into the incubator and continued incubation for 3 hours; • C) Taking the cell culture plate and removing the culture medium, adding 100 μL isopropanol (containing 0.4 mM HCl, 0.1% NP-40), and shaking the bed at room temperature for 30 min; and • D) Determining the absorbance value by selecting 570 nm on a TECAN enzyme-linked immunoassay detector.
(§5) The % Cell Viability was calculated using the following formula:
(§6) [formula] • Lum_HC: 0.1% DMSO control cell reading • Lum_Sample: cell readings with compound added • Lum_LC: Blank medium reading

Experiment [4] has as its system human mantle cell lymphoma cell JEKO-1. Kind of experiment: Cellular antiproliferative assay (MTT, 5 days), JEKO-1. The settings on record: Homo sapiens, 120 h, JEKO-1 cells, 5 days incubation. In kind it is cell-based. The procedure: as §1, §2, §3, §4, §5, §6
For experiment [5], the system named is ovarian cancer cell A2780. Kind of experiment: Cellular antiproliferative assay (MTT, 5 days), A2780. In kind it is cell-based, human. As to conditions: Homo sapiens, 120 h, A2780 cells, 5 days incubation. The procedure:
as §1, §2, §3, §4, §5, §6

Sequence of CDK6/CyclinD3 (Q00534 whole entry, species assumed): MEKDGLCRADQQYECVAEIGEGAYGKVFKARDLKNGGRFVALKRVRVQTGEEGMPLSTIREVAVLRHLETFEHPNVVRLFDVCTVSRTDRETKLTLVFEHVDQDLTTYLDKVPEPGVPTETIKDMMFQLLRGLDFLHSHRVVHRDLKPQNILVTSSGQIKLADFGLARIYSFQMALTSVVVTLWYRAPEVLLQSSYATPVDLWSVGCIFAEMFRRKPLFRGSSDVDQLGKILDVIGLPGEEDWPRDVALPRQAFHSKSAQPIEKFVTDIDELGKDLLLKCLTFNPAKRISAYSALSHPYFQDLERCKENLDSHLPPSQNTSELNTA
Sequence of CDK6/CyclinD3 (P30281 whole entry partner, species assumed): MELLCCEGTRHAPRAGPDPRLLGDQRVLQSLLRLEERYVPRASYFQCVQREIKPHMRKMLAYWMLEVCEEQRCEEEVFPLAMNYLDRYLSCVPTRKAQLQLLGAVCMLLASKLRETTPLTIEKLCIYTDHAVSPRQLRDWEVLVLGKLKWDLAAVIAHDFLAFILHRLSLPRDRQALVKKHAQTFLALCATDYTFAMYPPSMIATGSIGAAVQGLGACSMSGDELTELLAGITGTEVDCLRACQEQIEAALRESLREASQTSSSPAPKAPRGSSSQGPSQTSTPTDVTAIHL
Sequence of CDK4/CycD1 (P11802 whole entry, species assumed): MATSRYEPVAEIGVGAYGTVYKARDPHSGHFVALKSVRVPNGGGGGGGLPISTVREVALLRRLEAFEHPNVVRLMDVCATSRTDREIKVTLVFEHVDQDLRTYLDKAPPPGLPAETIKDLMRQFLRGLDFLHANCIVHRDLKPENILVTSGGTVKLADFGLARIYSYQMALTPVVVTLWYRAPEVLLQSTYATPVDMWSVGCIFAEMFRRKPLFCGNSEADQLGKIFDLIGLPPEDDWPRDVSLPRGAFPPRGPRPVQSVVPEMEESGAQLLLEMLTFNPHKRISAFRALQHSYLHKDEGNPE
Sequence of CDK4/CycD1 (P24385 whole entry partner, species assumed): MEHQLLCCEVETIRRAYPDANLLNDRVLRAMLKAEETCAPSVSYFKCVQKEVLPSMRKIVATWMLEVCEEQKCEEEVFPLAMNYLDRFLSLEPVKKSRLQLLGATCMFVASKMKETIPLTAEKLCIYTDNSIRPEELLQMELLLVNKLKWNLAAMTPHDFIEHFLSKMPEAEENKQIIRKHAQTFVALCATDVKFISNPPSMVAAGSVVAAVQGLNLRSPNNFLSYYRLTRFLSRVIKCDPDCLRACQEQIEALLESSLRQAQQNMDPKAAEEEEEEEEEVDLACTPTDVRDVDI

As to `CC(C)N1CCOc2c(F)cc(-c3nc(NC4CCN(S(C)(=O)=O)CC4)ncc3F)cc21` [TA-6, 5-fluoro-4-(8-fluoro-4-isopropyl-3,4-dihydro-2H-benzo[b][1,4]oxazin-6-yl)-N-(1-(methylsulfonyl)piperidin-4-yl)pyrimidin-2-amine], the IC50 in experiment [1] was 4.29 nM; in experiment [2], 13.7 nM; in experiment [3] it was at most 500 nM; in experiment [4], at most 500 nM; in experiment [5] it was at most 500 nM.

In the case of `CC(C)N1CCOc2c(F)cc(-c3nc(N[C@@H]4CCOC[C@H]4O)ncc3F)cc21` [TA-5, (3S,4R)-4-((5-fluoro-4-(8-fluoro-4-isopropyl-3,4-dihydro-2H-benzo[b][1,4]oxazin-6-yl)pyrimidin-2-yl)amino)tetrahydro-2H-pyran-3-ol], the IC50 is 3.11 nM in experiment [1]; 30.2 nM in experiment [2]; at most 500 nM in experiment [3]; at most 500 nM in experiment [4]; at most 500 nM in experiment [5].

Regarding `CC(C)N1CCOc2c(F)cc(-c3nc(NC4CCCC(C(=O)N(C)C)C4)ncc3F)cc21` (stereo not shown) [TA-7, 3-((5-fluoro-4-(8-fluoro-4-isopropyl-3,4-dihydro-2H-benzo[b][1,4]oxazin-6-yl)pyrimidin-2-yl)amino)-N,N-dimethylcyclohexane-1-carboxamide], the IC50 is 17.7 nM in experiment [1]; above 500 nM in experiment [2]; at most 500 nM in experiment [3]; at most 500 nM in experiment [4]; at most 500 nM in experiment [5].

`CC(=O)N1CCC[C@@H](Nc2ncc(Cl)c(-c3cc(F)c4c(c3)N(C(C)C)CCO4)n2)C1` [TA-16, (R)-1-(3-((5-chloro-4-(8-fluoro-4-isopropyl-3,4-dihydro-2H-benzo[b][1,4]oxazin-6-yl)pyrimidin-2-yl)amino)piperidin-1-yl)ethan-1-one]: the values for the IC50 in experiment [1] and in experiment [2] were 15.3 nM and 99.1 nM, respectively.

With `COc1ncc(-c2nc(N[C@@H]3CCOC[C@H]3O)ncc2F)c2c1CCC2` [TA-34, (3S,4R)-4-((5-fluoro-4-(1-methoxy-6,7-dihydro-5H-cyclopenta[c]pyridin-4-yl)pyrimidin-2-yl)amino)tetrahydro-2H-pyran-3-ol], the figures for the IC50 in experiment [1] and in experiment [2] were 729 nM and 2580 nM, respectively.

Take `CC(C)C(=O)N(c1cc(F)cc(-c2nc(N[C@@H]3CCOC[C@H]3O)ncc2Cl)c1)C(C)C` [TA-20]: the values for the IC50 in experiment [1] and in experiment [2] were 108 nM and 319 nM, respectively.

Consider `CC(C)N1CCOc2c(F)cc(-c3ccnc(N[C@@H]4CCOC[C@H]4O)n3)cc21` [TA-4, (3S,4R)-4-((4-(8-fluoro-4-isopropyl-3,4-dihydro-2H-benzo[b][1,4]oxazin-6-yl)pyrimidin-2-yl)amino)tetrahydro-2H-pyran-3-ol], for which the half-inhibitory concentration (IC50) is 10.4 nM in experiment [1]; 116 nM in experiment [2]; at most 500 nM in experiment [3]; at most 500 nM in experiment [4]; at most 500 nM in experiment [5].

For the compound `C[C@H]1CCN(C)c2nc3c(F)cc(-c4nc(Nc5ccncc5)ncc4Cl)cc3n21` [TB-137, (S)-5-chloro-4-(9-fluoro-1,4-dimethyl-1,2,3,4-tetrahydrobenzo[4,5]imidazo[1,2-a]pyrimidin-7-yl)-N-(pyridin-4-yl)pyrimidin-2-amine], the IC50 is 12.7 nM in experiment [1]; 95.2 nM in experiment [2]; at most 500 nM in experiment [3]; at most 500 nM in experiment [4]; at most 500 nM in experiment [5].

As for `CC(C)N1CCOc2c(F)cc(-c3nc(N[C@@H]4CCC[C@H](NS(C)(=O)=O)C4)ncc3Cl)cc21` [TA-17], the IC50 was found to be 22.7 nM in experiment [1] and 83.4 nM in experiment [2].

As to `CC(C)N1CCOc2c(F)cc(-c3nc(NC4CCCC(C(=O)N(C)C)C4)ncc3Cl)cc21` (stereo not shown) [TA-14, 3-((5-chloro-4-(8-fluoro-4-isopropyl-3,4-dihydro-2H-benzo[b][1,4]oxazin-6-yl)pyrimidin-2-yl)amino)-N,N-dimethylcyclohexane-1-carboxamide], the IC50 was 69.4 nM in experiment [1] and above 500 nM in experiment [2].

As to `CC(C)N1CCOc2c(F)cc(-c3nc(NC4CCN(S(C)(=O)=O)CC4)ncc3Cl)cc21` [TA-11, 5-chloro-4-(8-fluoro-4-isopropyl-3,4-dihydro-2H-benzo[b][1,4]oxazin-6-yl)-N-(1-(methylsulfonyl)piperidin-4-yl)pyrimidin-2-amine], the IC50 in experiment [1] is 7.19 nM; in experiment [2] it was 24.7 nM; in experiment [3], at most 500 nM; in experiment [4], at most 500 nM; in experiment [5], at most 500 nM.

Take `CC(C)N1CCOc2c(F)cc(-c3nc(NC4CCOCC4)ncc3F)cc21` [TA-8, 5-fluoro-4-(8-fluoro-4-isopropyl-3,4-dihydro-2H-benzo[b][1,4]oxazin-6-yl)-N-(tetrahydro-2H-pyran-4-yl)pyrimidin-2-amine]: the IC50 in experiment [1] came to 21.4 nM; in experiment [2] it was 67.3 nM.

Turning to `CN1CCCn2c1nc1c(F)cc(-c3nc(NC4CCN(S(C)(=O)=O)CC4)ncc3Cl)cc12` [TB-43, 5-chloro-4-(9-fluoro-1-methyl-1,2,3,4-tetrahydrobenzo[4,5]imidazo[1,2-a]pyrimidin-7-yl)-N-(1-(methylsulfonyl)piperidin-4-yl)pyrimidin-2-amine], the IC50 in experiment [1] was 18.6 nM; in experiment [2], 200 nM; in experiment [3], at most 500 nM; in experiment [4], at most 500 nM; in experiment [5], at most 500 nM.

`CC(C)c1c(C(C)(C)O)nc2c(F)cc(-c3nc(N[C@@H]4CCOC[C@H]4O)ncc3Cl)cn12` [TA-27, (3S,4R)-4-((5-chloro-4-(8-fluoro-2-(2-hydroxypropan-2-yl)-3-isopropylimidazo[1,2-a]pyridin-6-yl)pyrimidin-2-yl)amino)tetrahydro-2H-pyran-3-ol]: the IC50 is 21.8 nM in experiment [1] and 203 nM in experiment [2].

As for `COC(=O)N1CCC[C@@H](Nc2ncc(Cl)c(-c3cc(F)c4c(c3)N(C(C)C)CCO4)n2)C1` [TA-10, methyl (R)-3-((5-chloro-4-(8-fluoro-4-isopropyl-3,4-dihydro-2H-benzo[b][1,4]oxazin-6-yl)pyrimidin-2-yl)amino)piperidine-1-carboxylate], the IC50 in experiment [1] worked out at 57.6 nM; in experiment [2], 206 nM.

As for `CC(C)N1C(=O)COc2c(F)cc(-c3nc(N[C@@H]4CCOC[C@H]4O)ncc3Cl)cc21` [TA-2, 6-(5-chloro-2-(((3S,4R)-3-hydroxytetrahydro-2H-pyran-4-yl)amino)pyrimidin-4-yl)-8-fluoro-4-isopropyl-2H-benzo[b][1,4]oxazin-3(4H)-one], the IC50 in experiment [1] was 42.2 nM; in experiment [2], 109 nM; in experiment [3], 500 to 2000 nM; in experiment [4], at most 500 nM; in experiment [5], at most 500 nM.

Take `CC(C)N1CCOc2c(F)cc(-c3nc(N[C@@H]4CCOC[C@H]4O)ncc3Cl)cc21` [TA-1]: the IC50 is 0.849 nM in experiment [1]; 23.6 nM in experiment [2]; at most 500 nM in experiment [3]; at most 500 nM in experiment [4]; at most 500 nM in experiment [5].
